Measured values reported in patent publication US20260226101A1, “PEPTIDE WITH ANTI-INFLAMMATORY AND ANTI-MICROBIAL ACTIVITY” (priority 2023, published 2026).

Assay: in vitro
Type: cell-based, murine
Details: mouse
Experimental: Cell viability of synthetic peptides on the growth of RAW264.7 cells was measured using the methyl thiazolyl tetrazolium (MTT) assay after 48 h. Briefly, exponentially growing macrophages RAW264.7 cells were mechanically scraped, plated at a density of 7×10^3 cells in 100 μl were seeded into each well of a 96-well plate then incubated for 12 h at 37° C. under 5% CO2, and then the cells are treated with test peptides: IS 111 ([…]) or dexamethasone ([…]) cells were incubated at 37° C. in the presence of 5% CO2 for 42 h. After incubation, the morphology of cells was examined under a microscope. Following incubation, MTT was added to the cells (20 μL at 5 mg/mL MTT dissolved in 1×PBS) and incubated for 4 hours in the presence of 5% CO2 at 37° C. Formazan crystals were dissolved by the addition of 100 μL of 100% DMSO per well. Plates were then gently swirled for 5 min at room temperature to dissolve the precipitate. Absorbance was monitored at 575 nm using a microplate reader. Maximum cytotoxicity (100%) was determined by cells incubated with 1% Triton X-100; PBS was used as a negative control. Cells without treatment were considered as control. The average absorbance for each sample group was used to evaluate cell viability.
Optical density (O.D.) was calculated as the difference between the absorbance at the reference wavelength and that at the test wavelength. The relative cell viability was determined by the amount of MTT converted to the insoluble formazan salt. The data were expressed as the mean percentage of viable cells when compared with untreated cells (control). The half maximal growth inhibitory concentration (IC50) value was calculated from the line equation of the dose-dependent curve of each compound. The results were compared with the cytotoxic activity of dexamethasone, a known anti-inflammatory drug. […] Percentages of cell viability and LC50 of cells were calculated: Percent cell viability was calculated as (O.D. of drug-treated sample/control O.D.)×100. The data were expressed as percent cell viability compared with control (dimethyl sulfoxide/NS). The experiment was carried out in four samples of each concentration.
The percentages of cell viability and LC50 of cells were calculated by using the formula below.
Where Absorbance control is the DMSO 0.1%-treated cell absorbance, and Absorbance sample is the test sample-treated cell absorbance. LC50 values were derived from dose-response curves, and data were expressed as the mean of three independent experiments. Statistical analyses involved Student's t-test and one-way ANOVA.
The test peptide IS 111 cytotoxic effects on RAW 264.7 mouse […] were determined by MTT assay. […] Cell viability was measured by MTT assay based on the conversion of yellow tetrazolium salt to form a purple formazan product. The viability of the RAW 264.7 cells can be seen on table 21.

`C[C@@H]1C[C@H]2[C@@H]3CCC4=CC(=O)C=C[C@]4(C)[C@@]3(F)[C@@H](O)C[C@]2(C)[C@@]1(O)C(=O)CO` [Dexamethasone, dexamethasone, reference compound] showed a viability at 48 h, 7.8125 µg/mL of 102%, a viability at 48 h, 15.625 µg/mL of 90% and a viability at 48 h, 31.25 µg/mL of 82.8%. It also gave a viability at 48 h, 62.5 µg/mL of 91.4%, a viability at 48 h, 125 µg/mL of 96% and a viability at 48 h, 250 µg/mL of 90.8%. For the same molecule, the viability at 48 h, 500 µg/mL was 84.6%.
